Laboratory results published in ChEMBL document CHEMBL1144045, “Potent achiral agonists of the growth hormone secretagogue (ghrelin) receptor. Part 2: Lead optimisation” (Bioorg Med Chem Lett, 2008).

Assays:
[1] = molecular target: T1, Growth hormone secretagogue receptor type 1 (Homo sapiens, UniProt Q92847); test: Agonist activity at human GHSR1a by FLIPR assay relative to human ghrelin; type: functional
[2] = molecular target: T1, Growth hormone secretagogue receptor type 1; test: Agonist activity at human GHSR1a by FLIPR assay; type: functional
[3] = molecular target: 5-hydroxytryptamine receptor 1B (Homo sapiens, UniProt P28222); test: Binding affinity to 5HT1B receptor
Sequence of 5-hydroxytryptamine receptor 1B (P28222 whole entry): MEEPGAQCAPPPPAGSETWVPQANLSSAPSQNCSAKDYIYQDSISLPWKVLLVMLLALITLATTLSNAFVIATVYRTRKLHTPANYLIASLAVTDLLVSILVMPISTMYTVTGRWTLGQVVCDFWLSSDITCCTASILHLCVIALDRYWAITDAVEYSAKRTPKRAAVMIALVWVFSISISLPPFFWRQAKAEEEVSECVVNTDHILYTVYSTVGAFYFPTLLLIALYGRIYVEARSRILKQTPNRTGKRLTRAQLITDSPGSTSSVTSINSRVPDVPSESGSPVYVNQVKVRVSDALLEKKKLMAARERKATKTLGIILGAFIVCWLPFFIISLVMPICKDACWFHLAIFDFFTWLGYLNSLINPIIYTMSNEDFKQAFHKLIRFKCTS

Rattus norvegicus = test: Effect on food intake in Sprague-Dawley rat at 3 mg/kg, po after 2 hrs; type: functional
[4] = Oral bioavailability in Sprague-Dawley rat at 3 mg/kg; type: ADME, organism-based; conditions: in vivo
[5] = Clearance in Sprague-Dawley rat at 1 mg/kg, iv; type: ADME, organism-based; design: dose 1 mg/kg, route intravenous; conditions: in vivo
[6] = Half life in Sprague-Dawley rat; type: ADME, organism-based; conditions: in vivo
[7] = Volume of distribution at steady state in Sprague-Dawley rat; type: ADME, organism-based; conditions: in vivo, read-out: Vdss

T1 sequence (Q92847 whole entry): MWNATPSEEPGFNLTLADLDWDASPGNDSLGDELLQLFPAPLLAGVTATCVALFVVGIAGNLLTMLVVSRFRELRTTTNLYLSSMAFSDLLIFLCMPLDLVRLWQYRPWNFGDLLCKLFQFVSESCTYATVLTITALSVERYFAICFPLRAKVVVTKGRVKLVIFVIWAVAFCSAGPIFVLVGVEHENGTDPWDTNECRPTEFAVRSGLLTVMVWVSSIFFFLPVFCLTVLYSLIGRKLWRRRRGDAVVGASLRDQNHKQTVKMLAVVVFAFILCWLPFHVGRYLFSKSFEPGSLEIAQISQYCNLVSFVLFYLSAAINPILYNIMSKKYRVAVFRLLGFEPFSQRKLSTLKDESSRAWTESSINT

Row | Compound | Intrinsic activity [1] | EC50 [2] | further results
1 | COc1ccc(N2C[C@@H](C)N[C@@H](C)C2)cc1NS(=O)(=O)c1cccc(-c2ccccc2)c1 | 1 | 158 nM | 
2 | COc1ccc(N2C[C@@H](C)N[C@@H](C)C2)cc1NS(=O)(=O)c1ccc(OCc2ccccc2)cc1 | 0.8 | 100 nM | 
3 | CC(=O)c1ccc(N2C[C@@H](C)N[C@@H](C)C2)cc1NS(=O)(=O)c1ccc(-c2ccccn2)s1 | 0.9 | 39.8 nM | 
4 | COc1ccc(N2C[C@@H](C)N[C@@H](C)C2)cc1NS(=O)(=O)c1ccc(-c2cncnc2)cc1 | 0.6 | 316 nM | 
5 | CC(C)Oc1ccc(N2C[C@@H](C)N[C@@H](C)C2)cc1NS(=O)(=O)c1ccc(-c2ccccn2)s1 | 1.1 | 100 nM | 
6 | COc1ccc(N2C[C@@H](C)N[C@@H](C)C2)cc1NS(=O)(=O)c1ccc(Br)cc1 | 0.7 | 126 nM | 
7 | C[C@@H]1CN(c2ccc(C(=O)N(C)C)c(NS(=O)(=O)c3ccc(-c4ccccn4)s3)c2)C[C@H](C)N1 | 0.9 | 794 nM | 
8 | C[C@@H]1CN(c2cccc(NS(=O)(=O)c3ccc(-c4ccccn4)s3)c2)C[C@H](C)N1 | 0.8 | 39.8 nM | 
9 | C[C@@H]1CN(c2cc(NS(=O)(=O)c3ccc(-c4ccccn4)s3)ccc2C#N)C[C@H](C)N1 | 0.9 | 631 nM | 
10 | CCOc1ccc(N2C[C@@H](C)N[C@@H](C)C2)cc1NS(=O)(=O)c1ccc(-c2ccccn2)s1 | 0.8 | 39.8 nM | 
11 | COc1ccc(N2C[C@@H](C)N[C@@H](C)C2)cc1NS(=O)(=O)c1ccc(Oc2ccccc2)cc1 | 0.9 | 63.1 nM | 
12 | C[C@@H]1CN(c2ccc(F)c(NS(=O)(=O)c3ccc(-c4ccccn4)s3)c2)C[C@H](C)N1 | 0.8 | 100 nM | 
13 | COc1ccc(N2C[C@@H](C)N[C@@H](C)C2)cc1NS(=O)(=O)c1ccc(N2CCCC2=O)cc1 | 0.8 | 39.8 nM | 
14 | COc1ccc(N2C[C@@H](C)N[C@@H](C)C2)cc1NS(=O)(=O)c1ccc(-c2ccncc2)cc1 | 0.7 | 316 nM | 

Further lines, with some results ahead:

Row | Intrinsic activity [1] | EC50 [2] | Compound | further results
15 | 1 | 0.501 nM | COc1ccc(N2C[C@@H](C)N[C@@H](C)C2)cc1NS(=O)(=O)c1ccc(-c2cc(Cl)ccc2F)cc1 | 
16 | 0.9 | 3.98 nM | COc1ccc(N2C[C@@H](C)N[C@@H](C)C2)cc1NS(=O)(=O)c1ccc(-c2ccco2)cc1 | 
17 | 0.8 | 15.8 nM | COc1ccc(N2C[C@@H](C)N[C@@H](C)C2)cc1NS(=O)(=O)c1ccc(-n2cccn2)cc1 | 
18 | 1 | 6.31 nM | COc1ccc(N2C[C@@H](C)N[C@@H](C)C2)cc1NS(=O)(=O)c1ccc(-c2ccccc2)cc1 | 
19 | 1 | 39.8 nM | C[C@@H]1CN(c2ccc(Cl)c(NS(=O)(=O)c3ccc(-c4ccccn4)s3)c2)C[C@H](C)N1 | 
20 | 1.1 | 10 nM | COc1ccc(N2C[C@@H](C)N[C@@H](C)C2)cc1NS(=O)(=O)c1ccc(-c2ccccn2)s1 | 
21 | 0.9 | 2.51 nM | COc1ccc(N2C[C@@H](C)N[C@@H](C)C2)cc1NS(=O)(=O)c1ccc(-c2cnco2)s1 | 
22 | 1 | 3.98 nM | COc1ccc(N2C[C@@H](C)N[C@@H](C)C2)cc1NS(=O)(=O)c1ccc(-c2cccs2)cc1 | Ki [3]: > 3160 nM; Activity (Rattus norvegicus): 292%; bioavailability [4]: 74%; clearance [5]: 26 mL/min/kg; half-life [6]: 1 h; Vd [7]: 1.6 L/kg
23 | 0.9 | 15.8 nM | COc1ccc(NS(=O)(=O)c2ccc(-c3ccccn3)s2)cc1N1C[C@@H](C)N[C@@H](C)C1 | 
24 | 1 | 20 nM | COc1ccc(N2C[C@@H](C)N[C@@H](C)C2)cc1NS(=O)(=O)c1cccc(-c2ccco2)c1 | 
25 | 0.9 | 0.794 nM | COc1ccc(N2C[C@@H](C)N[C@@H](C)C2)cc1NS(=O)(=O)c1ccc(-c2cccs2)cc1Cl | 
26 | 1 | 0.794 nM | COc1ccc(N2C[C@@H](C)N[C@@H](C)C2)cc1NS(=O)(=O)c1ccc(-c2ccc(C)o2)cc1 | Ki [3]: > 3160 nM; Activity (Rattus norvegicus): 544%; bioavailability [4]: 75%; clearance [5]: 24 mL/min/kg; half-life [6]: 1.9 h; Vd [7]: 3.3 L/kg
27 | 1 | 2 nM | COc1cccc(-c2ccc(S(=O)(=O)Nc3cc(N4C[C@@H](C)N[C@@H](C)C4)ccc3OC)cc2)c1 | 
28 | 0.9 | 2 nM | COc1ccc(N2C[C@@H](C)N[C@@H](C)C2)cc1NS(=O)(=O)c1ccc(-c2cccs2)cc1F | 
29 | 1.2 | 0.398 nM | COc1ccc(F)c(-c2ccc(S(=O)(=O)Nc3cc(N4C[C@@H](C)N[C@@H](C)C4)ccc3OC)cc2)c1 | 
